Columns and labels:
[1] = test system: mice; experiment: Phenylbenzoquinone test (analgesic activity); format: in vivo; conditions: one hour before phenylbenzoquinone injection, 5 minutes observation
Method: 2. Phenylbenzoquinone test
The intraperitoneal injection of phenylbenzoquinone causes twisting and stretching movements in mice. Analgesics prevent or reduce this syndrome, which can be considered as the exteriorization of diffuse abdominal pain.
A 0.02% solution of phenylbenzoquinone in water is administered in a volume of 1 ml/100 g.
The products of the Examples are administered orally one hour before the injection of phenylbenzoquinone.
The stretching and twisting movements are counted for each mouse over an observation period of 5 minutes.

[2] = test system: Balbc 3T3 fibroblasts; experiment: Inhibition of the cell proliferation induced by a growth factor (PDGF) in Balbc 3T3 fibroblasts, ^3H-thymidine incorporation; format: cell-based; conditions: for % inhibition of the incorporation of ^3H-thymidine stimulated by PDGF, 1E-6M: test molecule 1E-6M
Method: Measurement of the inhibition of the cell proliferation induced by a growth factor in Balbc […] 3T3 fibroblasts
Inhibition of the cell proliferation induced by a growth factor (for example PDGF) is evaluated by measuring the incorporation of ^3 H-thymidine into Balbc 3T3 fibroblasts.
The Balbc 3T3 fibroblasts are cultivated at 37° C. with 5% of CO2 up to the point of subconfluence and are then placed for 18 hours under rest conditions in a serum-impoverished medium. They are subsequently pretreated for one hour with the test molecule (10^-5 M and/or 10^-6 M) and then stimulated for 22 hours with a growth factor (for example PDGF). ^3 H-Thymidine is incorporated over the last 2 hours. All these steps are performed at 37° C. with 5% of CO2.
The reaction is terminated by sucking off the reaction medium, detaching the cells and then filtering the lyzed cells through glass fiber filters.
The results are expressed as the percentage inhibition of the stimulation of ^3 H-thymidine incorporation induced by the growth factor.

With `O=C(NC1CC1)[C@H]1O[C@@H](n2cnc3c(NCCc4cnc5c(OCc6ccccc6)cccn45)ncnc32)[C@H](O)[C@@H]1O` [Example 33, β-D-Ribofuranuronamido-N-cyclopropyl-1-deoxy-1-[6-[[2-[8-(phenylmethoxy)imidazo[1,2-a]pyridin-3-yl]ethyl]amino]-9H-purin-9-yl]] as the compound, how does the “Phenylbenzoquinone test % inhibition at 30 mg/kg p.o.” value [1] read?
The value was 39%.

Which results are given for `Cc1ccc(C)c(COc2cccn3c(CCNc4ncnc5c4ncn5[C@@H]4O[C@H](C(=O)NC5CC5)[C@@H](O)[C@H]4O)cnc23)c1` [Example 34, β-D-Ribofuranuronamido-N-cyclopropyl-1-deoxy-1-[6-[[2-[[8-(2,5-dimethylphenyl)methoxy]imidazo[1,2-a]pyridin-3-yl]ethyl]amino]-9H-purin-9-yl]]?
Phenylbenzoquinone test % inhibition at 30 mg/kg p.o. [1]: 57%; % inhibition of the incorporation of ^3H-thymidine stimulated by PDGF, 1E-6M [2]: 72%

`COCCOc1cccn2c(CCNc3ncnc4c3ncn4[C@@H]3O[C@H](C(=O)NC4CC4)[C@@H](O)[C@H]3O)cnc12` [Example 35, β-D-Ribofuranuronamido-N-cyclopropyl-1-deoxy-1-[6-[[2-[8-(2-methoxyethoxy)imidazo[1,2-a]pyridin-3-yl]ethyl]amino]-9H-purin-9-yl]] was tested. Which “Phenylbenzoquinone test % inhibition at 30 mg/kg p.o.” value [1] did it give?
The value was 25%.

Which “Phenylbenzoquinone test % inhibition at 30 mg/kg p.o.” value [1] does the source give for `Cc1ccc(C)c(COc2cccn3c(CCNc4ncnc5c4ncn5[C@@H]4O[C@H](C(=O)NC5CC5)[C@@H](O)[C@H]4O)c(C)nc23)c1` [Example 36, β-D-Ribofuranuronamido-N-cyclopropy-1-deoxy-1-[6-[[2-[[8-(2,5-dimethylphenyl)methoxy]-2-methylimidazo[1,2-a]pyridin-3-yl]ethyl]amino]-9H-purin-9-yl]] here?
The value was 63%.

What about the “% inhibition of the incorporation of ^3H-thymidine stimulated by PDGF, 1E-6M” value [2] of the same compound?
The value was 80%.

What does the source list for `O=C(NC1CC1)[C@H]1O[C@@H](n2cnc3c(NCCc4cnc5c(OC6CCCC6)cccn45)ncnc32)[C@H](O)[C@@H]1O` [Example 37, β-D-Ribofuranuronamido-N-cyclopropyl-1-deoxy-1-[6-[[2-[8-(cyclopentoxy)imidazo[1,2-a]pyridin-3-yl]ethyl]amino]-9H-purin-9-yl]]?
Phenylbenzoquinone test % inhibition at 30 mg/kg p.o. [1]: 57%; % inhibition of the incorporation of ^3H-thymidine stimulated by PDGF, 1E-5M ([2]; test molecule 1E-5M): 63%
